Reference: patent US10046050B2, “Targeting immunotherapy for amyloidosis” (UNIVERSITY OF TENNESSEE RESEARCH FOUNDATION, priority 2014, dated 2018)

Columns and labels:
Aβ(1-40) fibrils = target: T1, Aβ(1-40) fibrils (Homo sapiens, UniProt P05067); test: EuLISA of murine 11-1F4 on synthetic amyloid fibrils with or without p66; type: binding; conditions: p66 added to fibril-coated wells
T1 construct: synthetic amyloid fibrils composed of rVλ6Wil (AL fibrils) or Aβ(1-40); host or cells: synthetic peptide fibrils
T1 sequence (P05067 672-711 limits assumed): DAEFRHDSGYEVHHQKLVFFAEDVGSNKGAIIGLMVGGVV
Procedure: (§1) To assess the interaction of 11-1F4 with synthetic amyloid fibrils, we evaluated the interaction of murine 11-1F4 with synthetic amyloid fibrils composed of the λ6 light chain Wil-associated with light chain (AL) amyloidosis, or Aβ(1-40), associated with Alzheimer's disease and cerebral amyloid angiopathy. More particularly, Costar high binding plates were coated with 50 μl per well of […] of synthetic amyloid fibrils composed of rVλ6Wil (AL fibrils) or Aβ(1-40) overnight at 37° C. The plates were washed with 1× solution of phosphate buffered saline with 0.05% (v/v) tween 20 (PBST)—similar wash steps were performed between each step. As a “blocking step” the plates were incubated for 1 h at 37° C. with 200 μl of 1% (w/v) BSA in PBS per well. The murine 11-1F4 mAb was added from 100 nM (in BSAT), as a starting concentration, and diluted 1:2 across the microplate and incubation for 1 h at 37° C. Biotinylated goat anti-mouse secondary antibodies (Sigma) were used at a 1:3000 dilution in BSAT. Europium-conjugated streptavidin (Perkin Elmer) was added (1:1000 dilution of stock) as a detection medium and the plate incubated for 1 h 37° C. […] was quantified following addition of enhancement solution (Perkin Elmer) and the time-resolved fluorescence measured using a Victor 3 Wallac plate reader (Perkin Elmer).

[1] = tested on: synthetic amyloid fibrils composed of rVλ6Wil (AL fibrils); test: as above; type: binding; conditions: p66 added to fibril-coated wells
Procedure: as §1

^125I-7D8 = test: Pulldown assay with peptope-coated polystyrene beads; type: binding; conditions: peptope conjugated to polystyrene beads; ˜0.065 nM ^125I-7D8
Procedure: The 7D8 antibody (15 μg) was radiolabeled with 0.5 mCi of reductant-free iodine-125 (^125I, Perkin Elmer) using limiting amounts of chloramine T (10 μg) and suspended in PBS containing 0.1% gelatin as carrier protein. Unbound radioisotope and protein aggregates were removed from the preparation by size-exclusion liquid chromatography using an Ultrogel AcA34 solid phase (Amersham Pharmacia). Fractions containing ^125I-7D8 were pooled for pull-down assays. The relative radiopurity of the preparation was assessed by SDS/PAGE (4-12% acrylamide; Novex) followed by imaging using a phosphor-imager (Cyclone).
Pulldown assays were performed using ^125I-7D8 using, as a substrate, peptope-conjugated to polystyrene beads, synthetic fibrils (Aβ[1-40] or IAPP) or human ATTR amyloid extracts (transthyretin-associated amyloid [ATTR] was previously isolated from the organs of three different patients with Appalachian mutation—Thr60Ala). […] The sample was mixed end over end for 1 h at room temperature, and the bound and free ^125I-7D8 were then separated by serial centrifugations at 16,000×g and the percent bound calculated immunoreactivity=[boundcpm/(boundcpm+freecpm)]×100 Pulldown assays using synthetic fibrils and amyloid extracts were performed essentially as described herein. […]

[2] = tested on: RAW 264.7 murine macrophages; test: Phagocytosis assay of pHrodo green-labeled human ATTR extract; type: cell-based; conditions: 80 min
Procedure: The phagocytosis of human cardiac ATTR extract induced by peptope and 7D8 was studied using a pH-sensitive fluorescence enhancement assay. The RAW 264.7 murine macrophages (1×10^6 cells per well) were plated into the wells of a 12-well culture dish, containing a glass coverslip, and incubated at 37° C. overnight. On the day of the experiment, 10 μg of pHrodo green-labeled human ATTR extract was mixed with 4 μg of p75 peptide or, as a negative control, an equal volume of PBS (pHrodo green [Thermofisher, Molecular Probes] is a pH sensitive dye that is only fluorescent at pH 4, i.e. in a acidified macrophage endosome/lysosome). The sample was incubated for 30 min. Unbound p75 peptide was removed by washing twice, by centrifugation at 10,000×g using PBS. The 7D8 and MOPC mAb solutions (MOPC served as a negative isotype control) were centrifuged at 10,000×g to remove particulates before adding 10 μg to the peptide-coated ATTR extract. The samples were incubated for 1 h before being washed by centrifugation as above, before being added to the wells of the microplate. The cells were incubated with the amyloid extract for 80 min, at which time Hoescht dye (Thermofisher) was added to the well (to stain the cell nuclei blue), and the mixture incubated for a further 10 min. The coverslips were then washed and mounted on a slide for epifluorescent microscopy and digital image acquisition using blue (nuclei) and green (phagocytosed amyloid) fluorescent filters. Images (original magnification 160×) were analyzed digitally and the area of green fluorescence per cell (“phagocytosis index”) was calculated using 3 or 4 digital images acquired from each coverslip. Approximately 2000 cells were analyzed for each sample.

Substance | reactivity of the 11-1F4 mAb with fibrils when p66 was added (Aβ(1-40) fibrils) | reactivity of the 11-1F4 mAb with fibrils when p66 was added [1] | percent of added ^125I-7D8 bound (^125I-7D8) | phagocytosis index (area of green fluorescence per cell), 25% Percentile [2] | phagocytosis index (area of green fluorescence per cell), 75% Percentile [2] | phagocytosis index (area of green fluorescence per cell), Maximum [2] | phagocytosis index (area of green fluorescence per cell), Mean [2] | phagocytosis index (area of green fluorescence per cell), Median [2] | phagocytosis index (area of green fluorescence per cell), Minimum [2]
KAQKAQAKQAKQAQKAQKAQAKQAKQAQKAQKAQAKQAKQ SVTVVT KHYAAFPENLLI [p66] | enhanced | enhanced |  |  |  |  |  |  | 
KAQKAQAKQAKQAQKAQKAQAKQAKQAQHEDT [p75, KAQKAQAKQAKQAQKAQKAQAKQAKQAQHEDT] |  |  | 62.3% | 0.5842 | 2.603 | 2.603 | 1.367 | 0.9137 | 0.5842
